Measured values: patent US20250230193A1, “CYCLIC COMPOUND HAVING SELECTIVE KRAS INHIBITORY EFFECT ON HRAS AND NRAS” (CHUGAI SEIYAKU KABUSHIKI KAISHA, priority 2022, published 2025)
Where a SMILES comes first, the peptide text is derived from it. Bridges are numbered along the chain shown (N, C = ends). [ ]: non-standard residue; d: D form. The star is where a group is joined. hPhe(3-Cl-4-CF3) = N[C@@H](CCc1ccc(C(F)(F)F)c(Cl)c1)C(=O)O; NPrPhe(4-CF3) = CCCN[C@@H](Cc1ccc(C(F)(F)F)cc1)C(=O)O; NMeGly(cPent) = CN[C@H](C(=O)O)C1CCCC1; Piperidide(4-Me) = CC1CCN(*)CC1; NMeD = CN[C@@H](CC(=O)O)C(=O)O; NMeL = CN[C@@H](CC(C)C)C(=O)O; NMeA = CN[C@@H](C)C(=O)O; Ac5c = NC1(C(=O)O)CCCC1; Aze = O=C(O)[C@@H]1CCN1; Sar = CNCC(=O)O

Tests used:
[1] = target: GDP-bound HRAS wild-type protein (Homo sapiens, UniProt P01112); assay: Binding to HRAS by surface plasmon resonance (SPR), Single Cycle Kinetics; settings: SPR; for HRAS/KRAS (ratio of KD value with respect to HRAS to KD value with respect to KRAS) / HRAS/KRAS (ratio of KD value for HRAS to KD value for KRAS): GDP-bound HRAS wild-type vs GDP-bound KRAS wild-type; for HRAS/KRAS (ratio of KD value with respect to GDP-bound HRAS wild-type protein to KD value with respect to KRAS): GDP-bound wild-type proteins
Sequence of GDP-bound HRAS wild-type protein (P01112 whole entry): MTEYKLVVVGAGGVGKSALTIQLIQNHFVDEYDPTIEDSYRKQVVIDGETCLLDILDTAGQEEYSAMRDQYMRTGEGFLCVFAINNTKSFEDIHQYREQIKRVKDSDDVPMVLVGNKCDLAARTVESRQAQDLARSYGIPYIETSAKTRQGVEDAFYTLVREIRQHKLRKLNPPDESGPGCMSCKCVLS

[2] = target: GDP-bound NRAS wild-type protein (Homo sapiens, UniProt P01111); assay: Binding to NRAS by surface plasmon resonance (SPR), Single Cycle Kinetics; settings: SPR; for NRAS/KRAS (ratio of KD value with respect to NRAS to KD value with respect to KRAS) / NRAS/KRAS (ratio of KD value for NRAS to KD value for KRAS): GDP-bound NRAS wild-type vs GDP-bound KRAS wild-type; for NRAS/KRAS (ratio of KD value with respect to GDP-bound NRAS wild-type protein to KD value with respect to KRAS): GDP-bound wild-type proteins
Sequence of GDP-bound NRAS wild-type protein (P01111 whole entry): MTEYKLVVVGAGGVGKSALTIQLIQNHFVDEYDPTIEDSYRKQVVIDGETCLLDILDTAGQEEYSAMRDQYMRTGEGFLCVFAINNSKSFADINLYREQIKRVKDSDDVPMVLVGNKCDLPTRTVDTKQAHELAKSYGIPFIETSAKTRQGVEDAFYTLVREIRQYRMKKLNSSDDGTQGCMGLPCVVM

`CCO[C@@H]1C[C@H]2C(=O)NC3(CC(C)(C)C3)C(=O)N(C)[C@@H](C(CC)CC)C(=O)N(C)[C@H](C(=O)N(C)C)CC(=O)N(C)[C@@H](CC3CC3)C(=O)N[C@@H]([C@@H](C)CC)C(=O)N(C)CC(=O)N(C)[C@H]3C/C=C\CCN(C3=O)[C@@H](Cc3ccc(C(F)(F)F)cc3)C(=O)N(C)CC(=O)N[C@@H](CCc3ccc(C(F)(F)F)c(Cl)c3)C(=O)N2C1` [PP2124] was tested, and the “HRAS/KRAS (ratio of KD value with respect to HRAS to KD value with respect to KRAS)” value [1] was “A (a compound having 10 or more and less than 20 is denoted as A)” and the “NRAS/KRAS (ratio of KD value with respect to NRAS to KD value with respect to KRAS)” value [2] was “AA (a compound having 20 or more is denoted as AA)”.
With `CCC[C@H]1C(=O)N[C@@H]([C@@H](C)CC)C(=O)N2CCC[C@H]2C(=O)N(C)[C@H]2C/C=C\CCN(C2=O)[C@@H](Cc2ccc(C(F)(F)F)cc2)C(=O)N(C)CC(=O)N[C@@H](CCc2cc(F)c(C(F)(F)F)c(F)c2)C(=O)N2C[C@H](OCC)C[C@H]2C(=O)N(C)C2(CCC2)C(=O)N(C)[C@@H](C2CCCC2)C(=O)N(C)[C@H](C(=O)N2CCCC2)CC(=O)N1C` [PP3116] the “HRAS/KRAS (ratio of KD value with respect to GDP-bound HRAS wild-type protein to KD value with respect to KRAS)” value ([1]; KD ratio HRAS/KRAS) was “A (a compound having 10 or more and less than 20 is denoted as A)” and the “NRAS/KRAS (ratio of KD value with respect to GDP-bound NRAS wild-type protein to KD value with respect to KRAS)” value ([2]; KD ratio NRAS/KRAS) was “A (a compound having 10 or more and less than 20 is denoted as A)”.
With `CCC[C@H]1C(=O)N[C@@H]([C@@H](C)CC)C(=O)N(C)CC(=O)N(C)[C@H]2C/C=C\CCN(C2=O)[C@@H](Cc2ccc(C)cc2)C(=O)N(C)CC(=O)N[C@@H](CCc2cc(F)c(C(F)(F)F)c(F)c2)C(=O)N2CC3(CC3)C[C@H]2C(=O)NC2(CC(C)(C)C2)C(=O)N(C)[C@@H](CC(F)(F)F)C(=O)N(C)[C@H](C(=O)N(C)C)CC(=O)N1C` [PP3003] the “HRAS/KRAS (ratio of KD value with respect to GDP-bound HRAS wild-type protein to KD value with respect to KRAS)” value ([1]; KD ratio HRAS/KRAS) was “A (a compound having 10 or more and less than 20 is denoted as A)” and the “NRAS/KRAS (ratio of KD value with respect to GDP-bound NRAS wild-type protein to KD value with respect to KRAS)” value ([2]; KD ratio NRAS/KRAS) was “AA (a compound having 20 or more is denoted as AA)”.
In the case of `CCO[C@@H]1C[C@H]2C(=O)NC3(CCC3)C(=O)N(C)[C@@H](C3CCCC3)C(=O)N(C)[C@H](C(=O)N(C)C)CC(=O)N(C)[C@@H](CC)C(=O)N[C@@H]([C@@H](C)CC)C(=O)N3CC[C@H]3C(=O)N(C)[C@H]3CC(C)=C(C)CN(C3=O)[C@@H](Cc3ccc(C(F)(F)F)cc3)C(=O)N(C)CC(=O)N[C@@H](CCc3cc(F)c(C(F)(F)F)c(F)c3)C(=O)N2C1` [PP1049], the “HRAS/KRAS (ratio of KD value with respect to HRAS to KD value with respect to KRAS)” value ([1]; KD ratio) is reported as “C (A compound having a KD ratio of 0.1 or more and less than 3 is denoted as C)” and the “NRAS/KRAS (ratio of KD value with respect to NRAS to KD value with respect to KRAS)” value ([2]; KD ratio) is reported as “C (A compound having a KD ratio of 0.1 or more and less than 3 is denoted as C)”.
For `C=CCN1CC(=O)N(C)[C@H]2C/C=C\CCN(C2=O)[C@@H](Cc2ccc(C(F)(F)F)cc2)C(=O)N(C)CC(=O)N[C@@H](CCc2ccc(C(F)(F)F)c(OC)c2)C(=O)N2C[C@H](OCC)C[C@H]2C(=O)NC2(CC(C)(C)C2)C(=O)N(C)[C@@H](C2CCCC2)C(=O)N(C)[C@H](C(=O)N(C)C)CC(=O)N(C)[C@@H](CCC)C(=O)N[C@@H]([C@@H](C)CC)C1=O` [PP2106], the “HRAS/KRAS (ratio of KD value with respect to HRAS to KD value with respect to KRAS)” value [1] was “A (a compound having 10 or more and less than 20 is denoted as A)” and the “NRAS/KRAS (ratio of KD value with respect to NRAS to KD value with respect to KRAS)” value [2] was “A (a compound having 10 or more and less than 20 is denoted as A)”.
For `CCCN(C)C(=O)[C@@H]1CC(=O)N(C)[C@@H](CC(F)F)C(=O)N[C@@H]([C@@H](C)CC)C(=O)N(C)CC(=O)N(C)[C@H]2C/C=C\CCN(C2=O)[C@@H](Cc2ccc(C(F)(F)F)cc2)C(=O)N(C)CC(=O)N[C@@H](CCc2ccc(C(F)(F)F)c(OC)c2)C(=O)N2C[C@H](OCC)C[C@H]2C(=O)NC2(CC(C)(C)C2)C(=O)N(C)[C@@H](C2CCCC2)C(=O)N1C` [PP2010], the “HRAS/KRAS (ratio of KD value for HRAS to KD value for KRAS)” value ([1]; KD ratio) was “B (a compound having 3 or more and less than 10 is denoted as B)” and the “NRAS/KRAS (ratio of KD value for NRAS to KD value for KRAS)” value ([2]; KD ratio) was “A (a compound having 10 or more and less than 20 is denoted as A)”.
With `CCCN1C(=O)[C@@H]2CCN2C(=O)[C@H](C)N(C)C(=O)[C@H]([C@@H](C)CC)NC(=O)[C@H](CC(C)C)N(C)C(=O)C[C@@H](C(=O)N2CCC(C)CC2)N(C)C(=O)[C@H](C2CCCC2)N(C)C(=O)C2(CCCC2)NC(=O)[C@@H]2CCCN2C(=O)[C@H](CCc2ccc(C(F)(F)F)c(Cl)c2)NC(=O)CN(C)C(=O)[C@@H]1Cc1ccc(C(F)(F)F)cc1` [PP0185] ([NMeL]I[NMeA][Aze][NPrPhe(4-CF3)][Sar][hPhe(3-Cl-4-CF3)]P[Ac5c][NMeGly(cPent)][NMeD]-{Piperidide(4-Me)}; lactam N-11) the “HRAS/KRAS (ratio of KD for GDP-bound HRAS wild-type to KD for KRAS)” value ([1]; KD ratio HRAS/KRAS) was “B (a compound having 3 or more and less than 10 is denoted as B)” and the “NRAS/KRAS (ratio of KD for GDP-bound NRAS wild-type to KD for KRAS)” value ([2]; KD ratio NRAS/KRAS) was “C (A compound having a KD ratio of 0.1 or more and less than 3 is denoted as C)”.
`CCO[C@@H]1C[C@H]2C(=O)NC3(CCC3)C(=O)N(C)[C@@H](C3CCCC3)C(=O)N(C)[C@H](C(=O)N(C)CC)CC(=O)N(C)[C@@H](CC3CCC3)C(=O)N[C@@H]([C@@H](C)CC)C(=O)N(C)CC(=O)N(C)[C@H]3C/C=C\CCN(C3=O)[C@@H](Cc3ccc(C(F)(F)F)cc3)C(=O)N(C)CC(=O)N[C@@H](CCc3cc(F)c(C(F)(F)F)c(F)c3)C(=O)N2C1` [PP1667] was tested, and the “HRAS/KRAS (ratio of KD value for HRAS to KD value for KRAS)” value ([1]; KD ratio) was “A (a compound having 10 or more and less than 20 is denoted as A)” and the “NRAS/KRAS (ratio of KD value for NRAS to KD value for KRAS)” value ([2]; KD ratio) was “A (a compound having 10 or more and less than 20 is denoted as A)”.
